For assay [1], the system named is PKM2, HIF1α, Hexokinase II and PDK1 in TBL3 cells. Briefly: Immunoblot of PKM2, HIF1α, Hexokinase II and PDK1 in TBL3 cells. It is filed as cell-based, bovine. The method, then:
Total proteins were extracted with Laemmli lysis, sonicated: 15 secs ON / 30 secs OFF for 5 min, resolved on 10.5% acrylamide/bis-acrylamide SDS-PAGE gels and transferred to nitrocellulose membranes (Thermo Fisher Scientific, MA, USA) in transfer buffer. Protein transfer was assessed by Ponceau-red staining. Membranes were blocked in Tris-buffered saline pH7.4 containing 0.1% Tween-20 and 5% milk for 1 h at room temperature. Incubations with primary antibodies were carried out at 4°C overnight using antibody dilutions as manufacturer recommendations in Trisbuffered saline pH7.4, 0.05% Tween-20 and 5% milk. Following 1 h incubation with an anti-rabbit or anti-mouse peroxidase-conjugated antibody (Sigma, St Louis, MO, USA) at room temperature, proteins were detected by chemiluminescence (Thermo Fisher Scientific, MA, USA) following the manufacturer's instructions. The following antibodies were used: Rabbit anti-TaPIN (Home-made antibody, Proteogenix, Peptide used: […]-Cys), rabbit anti-PIN1 (Cell Signaling, Ref: 3722), rabbit anti-TaActin (kindly provided by Jake Baum, Australia), rabbit anti-c-Jun (Santa Cruz, CA, USA Ref: sc1694), mouse anti-αTubulin (Sigma, Ref: T9026), , rabbit anti-HIF1α (Abcam, Cambridge, UK; Ref: ab75918), rabbit anti-Hexokinase II (Cell Signaling, Ref: C64G5), rabbit anti-PDK1 (Cell signaling, Ref: C47H1), mouse anti-HA (Roche, Ref: 11583816001), rabbit anti-FBW7 (Bethyl Laboratories, Ref: A301-721A), rabbit anti-Histone H3 (Abcam, Ref: ab1791), rabbit anti-PKM2 (Abcam, Ref: ab38237), mouse anti-Actin (Sigma, Ref: A1978) and monoclonal anti-FLAG M2-Peroxidase (Sigma, Ref: A8592). c-Jun, FBW7 or PKM2/Actin ratios were calculated after Western blot signal quantification with the Plot Lanes Analysis tool of Image J software (National Institutes of Health, Bethesda, MD, USA).

Assay [2] relates to host bovine bPIN1. The assay is described as follows: Quantitative PCR of host bPIN1 transcripts. The class given is cell-based. How it is done:
(§1) Total cellular RNAs were extracted using an RNeasy Plus Mini Kit (Qiagen, Hilden, Germany) and parasite RNAs were extracted using the classical Trizol Protocol. cDNA synthesis was performed with the Reverse Transcriptase Superscript III (Invitrogen, CA, USA).
(§2) Quantitative PCR amplification was performed in the ABI 7500 machine (Applied Biosystems, CA, USA) using the Sybr Green reagent (Applied Biosystems, CA, USA) using the primers listed in Table 5 below. The detection of a single product was verified by dissociation curve analysis. Relative quantities of mRNA were analyzed using the delta Ct method. The βactin qPCR was used for normalization. Table 5: qPCR primers

For assay [3], the system named is TaPIN transcripts. The assay is described as follows: Quantitative PCR of TaPIN transcripts in T.annulata-infected cells. The class given is cell-based. The method, then:
as §1, §2

Each structure is given as a SMILES string.

The record followed here is EP2845588A1, “PIN1 inhibitors for use in the prevention and/or treatment of theileriosis, and related applications” (Centre National de la Recherche Scientifique (CNRS), priority 2013, dated 2015).

Turning to `CC(C)(C)C1CCC(CC2=C(O)C(=O)c3ccccc3C2=O)CC1` (stereo not drawn) [Buparvaquone, 2-((4-tert-butylcyclohexyl)methyl)-3-hydroxy-1,4-naphthoquinone], in assay [1], the HIF1α protein expression result is given as “reduced” and the PKM2 protein expression entry is “reduced”. Moreover, in assay [1] (HIF1α target gene), the “Hexokinase II” value is recorded as “reduced” and the PDK1 entry is recorded as “reduced”. Besides, the “level of RNA transcripts encoding the host bovine bPIN1 protein” value in assay [2] is on record as “not affected”. In assay [3], the TaPIN transcripts result is listed as “lost”.
